Measured values reported in ChEMBL document CHEMBL1135425, “Antitumor agents. 213. Modeling of epipodophyllotoxin derivatives using variable selection k nearest neighbor QSAR method” (J Med Chem, 2002).
Where “and” joins values, the source holds several entries; their conditions need not be identical. Equal entries are not always repeated.

Target: DNA topoisomerase II (Homo sapiens) (UniProt P11388+Q02880)
Test: Percentage of intracellular covalent DNA-topoisomerase II complexes formed
Assay type: cell-based

Complex formation	SMILES
100%	COc1cc([C@@H]2c3cc4c(cc3[C@@H](OC(=O)c3cccc(N)c3)[C@H]3COC(=O)[C@H]23)OCO4)cc(OC)c1O
83%	COc1cc([C@@H]2c3cc4c(cc3C(Nc3ccc(O)cc3)[C@H]3COC(=O)[C@H]23)OCO4)cc(O)c1O (stereo partly specified)
125%	COc1cc([C@@H]2c3cc4c(cc3[C@@H](NC(=O)Nc3ccc(Cl)cc3)[C@H]3COC(=O)[C@H]23)OCO4)cc(OC)c1O
9%	CCOC(=O)c1ccc(NC2c3cc(OC)c(OC)cc3[C@@H](c3cc(OC)c(OC)c(OC)c3)[C@H]3C(=O)OC[C@H]23)cc1 (stereo partly specified)
140%	COc1cc([C@@H]2c3cc4c(cc3[C@@H](Nc3cccc(N)c3)[C@H]3COC(=O)[C@H]23)OCO4)cc(OC)c1O
180%	COc1ccc(N[C@@H]2c3cc4c(cc3[C@@H](c3cc(OC)c(O)c(OC)c3)[C@H]3C(=O)OC[C@@H]32)OCO4)cc1OC
120%	COc1cc([C@@H]2c3cc4c(cc3[C@@H](NC(=O)c3ccc(N)cc3)[C@H]3COC(=O)[C@H]23)OCO4)cc(OC)c1O
97%	COc1cc([C@@H]2c3cc4c(cc3[C@@H](Nc3ccc(Oc5ccccc5)cc3)[C@H]3COC(=O)[C@H]23)OCO4)cc(OC)c1O
125%	COc1cc2c(cc1OC)[C@@H](c1cc(OC)c(O)c(OC)c1)[C@H]1C(=O)OC[C@@H]1C2Nc1ccc(C#N)cc1 (stereo partly specified)
83%	CCOC(=O)CC[C@H](NC(=O)c1ccc(N[C@@H]2c3cc4c(cc3[C@@H](c3cc(OC)c(O)c(OC)c3)[C@H]3C(=O)OC[C@@H]32)OCO4)cc1)C(=O)OCC
8%	COc1cc2c(cc1OC)[C@@H](Nc1ccc([N+](=O)[O-])cc1)[C@H]1COC(=O)[C@@H]1[C@@H]2c1cc(OC)c(OC)c(OC)c1
100%	COc1cc([C@@H]2c3cc4c(cc3[C@@H](Nc3ccc(NC(=O)c5cc([N+](=O)[O-])cn5C)cc3)[C@H]3COC(=O)[C@H]23)OCO4)cc(OC)c1O
1%	COC1=CC([C@@H]2c3cc4c(cc3C(NC(N=O)C(C)C)[C@H]3COC(=O)[C@H]23)OCO4)=CC(=O)C1(O)CC(C)=O (stereo partly specified)
10%	COc1cc([C@@H]2c3cc4c(cc3[C@@H](Sc3ccc(O)cc3)[C@H]3COC(=O)[C@H]23)OCO4)cc(OC)c1O
284%	COc1cc([C@@H]2c3cc4c(cc3[C@@H](NCc3ccc(C#N)cc3)[C@H]3COC(=O)[C@H]23)OCO4)cc(OC)c1O
129%	COC(=O)c1ccc(N[C@@H]2c3cc4c(cc3[C@@H](c3cc(OC)c(O)c(OC)c3)[C@H]3C(=O)OC[C@@H]32)OCO4)cc1O
211%	COc1cc([C@@H]2c3cc4c(cc3[C@@H](Nc3ccc(C#N)cc3)[C@H]3COC(=O)[C@H]23)OCO4)cc(OC)c1O
100%	COc1cc([C@@H]2c3cc4c(cc3[C@@H](O[C@@H]3O[C@@H]5CO[C@@H](C)O[C@H]5[C@H](O)[C@H]3O)[C@H]3COC(=O)[C@H]23)OCO4)cc(OC)c1O
177%	COc1cc([C@@H]2c3cc4c(cc3[C@@H](NC(=O)c3ccccc3)[C@H]3COC(=O)[C@H]23)OCO4)cc(OC)c1O
183% and 203%	COc1cc([C@@H]2c3cc4c(cc3[C@@H](NCCN(C)C)[C@H]3COC(=O)[C@H]23)OCO4)cc(OC)c1O
34%	COc1cc([C@@H]2c3cc4c(cc3[C@@H](Oc3ccc(O)cc3)[C@H]3COC(=O)[C@H]23)OCO4)cc(OC)c1O
15.6%	COc1cc([C@@H]2c3cc4c(cc3[C@@H](O)[C@H]3COC(=O)[C@H]23)OCO4)c(Cl)c(OC)c1O
151%	COc1cc([C@@H]2c3cc4c(cc3[C@@H](Nc3ccccc3O)[C@H]3COC(=O)[C@H]23)OCO4)cc(OC)c1O
22%	CCOC(=O)c1ccc(NC2c3cc(O)c(O)cc3[C@@H](c3cc(OC)c(OC)c(OC)c3)[C@H]3C(=O)OC[C@H]23)cc1 (stereo partly specified)

Complex formation	SMILES
36.4%	COc1cc([C@@H]2c3cc4c(cc3[C@@H](N)[C@H]3COC(=O)[C@H]23)OCO4)cc(OC)c1O
69.7%	CCCN[C@@H]1c2cc3c(cc2[C@@H](c2cc(OC)c(O)c(OC)c2)[C@H]2C(=O)OC[C@@H]21)OCO3
123%	COc1cc([C@@H]2c3cc4c(cc3[C@@H](Nc3cnc5ccccc5c3)[C@H]3COC(=O)[C@H]23)OCO4)cc(OC)c1O
148%	COc1cc([C@@H]2c3cc4c(cc3[C@@H](Nc3cccnc3)[C@H]3COC(=O)[C@H]23)OCO4)cc(OC)c1O
73%	CCC(C)N[C@@H]1c2cc3c(cc2[C@@H](c2cc(OC)c(O)c(OC)c2)[C@H]2C(=O)OC[C@@H]21)OCO3 (stereo partly specified)
52%	COc1cc([C@@H]2c3cc(O)c(O)cc3C(Nc3ccc(F)cc3)[C@H]3COC(=O)[C@H]23)cc(OC)c1O (stereo partly specified)
235%	COc1cc([C@@H]2c3cc4c(cc3[C@@H](Nc3cccc(CO)c3)[C@H]3COC(=O)[C@H]23)OCO4)cc(OC)c1O
75%	COc1cc([C@@H]2c3cc4c(cc3C(Nc3cccc([N+](=O)[O-])c3)[C@H]3COC(=O)[C@H]23)OCO4)cc(O)c1O (stereo partly specified)
164%	COc1cc([C@@H]2c3cc4c(cc3[C@@H](Nc3ccc5c(c3)OCO5)[C@H]3COC(=O)[C@H]23)OCO4)cc(OC)c1O
137%	COc1cc([C@@H]2c3cc4c(cc3[C@@H](Nc3cccc(C#N)c3)[C@H]3COC(=O)[C@H]23)OCO4)cc(OC)c1O
179%	COc1cc([C@@H]2c3cc4c(cc3[C@@H](Nc3ccc(Br)cc3)[C@H]3COC(=O)[C@H]23)OCO4)cc(OC)c1O
26%	COc1cc([C@@H]2c3cc4c(cc3[C@@H](Nc3ccc(NC(=O)c5cc(NC(=O)c6cc([N+](=O)[O-])cn6C)cn5C)cc3)[C@H]3COC(=O)[C@H]23)OCO4)cc(OC)c1O
147%	COc1cc([C@@H]2c3cc4c(cc3C(Nc3ccc(C(C)=O)cc3)[C@H]3COC(=O)[C@H]23)OCO4)cc(O)c1O (stereo partly specified)
89.2%	COc1cc([C@@H]2c3cc4c(cc3[C@@H](NCCCO)[C@H]3COC(=O)[C@H]23)OCO4)cc(OC)c1O
148%	COc1cc([C@@H]2c3cc4c(cc3[C@@H](NC(=O)Nc3ccccc3)[C@H]3COC(=O)[C@H]23)OCO4)cc(OC)c1O
6.9%	COc1cc([C@@H]2c3cc4c(cc3[C@@H](Nc3ccc(C(=O)O)cc3)[C@H]3COC(=O)[C@H]23)OCO4)cc(OC)c1O
207%	COC(=O)c1ccc(N[C@@H]2c3cc4c(cc3[C@@H](c3cc(OC)c(O)c(OC)c3)[C@H]3C(=O)OC[C@@H]32)OCO4)cc1
94%	COc1cc([C@@H]2c3cc4c(cc3[C@@H](OC(=O)c3ccc(N)cc3)[C@H]3COC(=O)[C@H]23)OCO4)cc(OC)c1O
4%	CCOC(=O)c1ccccc1N[C@@H]1c2cc3c(cc2[C@@H](c2cc(OC)c(O)c(OC)c2)[C@H]2C(=O)OC[C@@H]21)OCO3
12%	COc1cc2c(cc1OC)[C@@H](c1cc(OC)c(OC)c(OC)c1)[C@H]1C(=O)OC[C@@H]1C2Nc1ccc(C#N)cc1 (stereo partly specified)
9%	COc1cc([C@@H]2c3cc(O)c(O)cc3[C@@H](Nc3ccccc3)[C@H]3COC(=O)[C@H]23)cc(OC)c1OC
119%	COc1cc([C@@H]2c3cc4c(cc3C(Nc3ccc5c(c3)OCCO5)[C@H]3COC(=O)[C@H]23)OCO4)cc(O)c1O (stereo partly specified)
11%	COc1cc([C@@H]2c3cc4c(cc3[C@@H](Nc3cc(N)ccc3O)[C@H]3COC(=O)[C@H]23)OCO4)cc(OC)c1O
21%	COc1cc([C@@H]2c3cc4c(cc3[C@@H](Nc3cc(C(F)(F)F)cc(C(F)(F)F)c3)[C@H]3COC(=O)[C@H]23)OCO4)cc(OC)c1O

SMILES	Complex formation
COc1cc([C@@H]2c3cc4c(cc3C(Nc3ccc([N+](=O)[O-])cc3)[C@H]3COC(=O)[C@H]23)OCO4)cc(O)c1O (stereo partly specified)	200%
COc1cc([C@@H]2c3cc4c(cc3[C@@H](Nc3ccc(NC(=O)C56CCC(C)(C(=O)O5)C6(C)C)cc3)[C@H]3COC(=O)[C@H]23)OCO4)cc(OC)c1O (stereo partly specified)	88%
COc1cccc(N[C@@H]2c3cc4c(cc3[C@@H](c3cc(OC)c(O)c(OC)c3)[C@H]3C(=O)OC[C@@H]32)OCO4)c1	104%
COc1ccc([N+](=O)[O-])cc1N[C@@H]1c2cc3c(cc2[C@@H](c2cc(OC)c(O)c(OC)c2)[C@H]2C(=O)OC[C@@H]21)OCO3	12%
COc1cc([C@@H]2c3cc4c(cc3[C@@H](Nc3ccccc3F)[C@H]3COC(=O)[C@H]23)OCO4)cc(OC)c1O	121%
COc1cc([C@@H]2c3cc4c(cc3C(Nc3ccc(C#N)cc3)[C@H]3COC(=O)[C@H]23)OCO4)cc(O)c1O (stereo partly specified)	146%
COc1cc([C@@H]2c3cc4c(cc3[C@@H](Nc3ccccn3)[C@H]3COC(=O)[C@H]23)OCO4)cc(OC)c1O	97%
COc1cc([N+](=O)[O-])c(OC)cc1N[C@@H]1c2cc3c(cc2[C@@H](c2cc(OC)c(O)c(OC)c2)[C@H]2C(=O)OC[C@@H]21)OCO3	4.4%
COc1cc([C@@H]2c3cc4c(cc3[C@@H](NC(=O)c3ccccc3O)[C@H]3COC(=O)[C@H]23)OCO4)cc(OC)c1O	160%
COc1cc([C@@H]2c3cc4c(cc3[C@@H](Nc3ccc(N)cc3)[C@H]3COC(=O)[C@H]23)OCO4)cc(OC)c1O	330%
COc1cc([C@@H]2c3cc4c(cc3[C@@H](Nc3cccc(Cl)c3)[C@H]3COC(=O)[C@H]23)OCO4)cc(OC)c1O	51%
COc1cc([C@@H]2c3cc4c(cc3[C@@H](Nc3ccc([N+](=O)[O-])cc3)[C@H]3COC(=O)[C@H]23)OCO4)cc(OC)c1O	323%
COc1cc([C@@H]2c3cc4c(cc3[C@@H](NCc3ccccc3)[C@H]3COC(=O)[C@H]23)OCO4)cc(OC)c1O	181%
COc1cc([C@@H]2c3cc4c(cc3[C@@H](NCc3cccc(C#N)c3)[C@H]3COC(=O)[C@H]23)OCO4)cc(OC)c1O	225%
COc1cc([C@@H]2c3cc4c(cc3[C@@H](O)[C@H]3COC(=O)[C@H]23)OCO4)cc(OC)c1O	42.2%
COc1cc([C@@H]2c3cc4c(cc3C(Nc3ccc(F)cc3)[C@H]3COC(=O)[C@H]23)OCO4)cc(O)c1O (stereo partly specified)	117%
COc1ccc(N[C@@H]2c3cc4c(cc3[C@@H](c3cc(OC)c(O)c(OC)c3)[C@H]3C(=O)OC[C@@H]32)OCO4)c([N+](=O)[O-])c1	15%
COc1cc(CN[C@@H]2c3cc4c(cc3[C@@H](c3cc(OC)c(O)c(OC)c3)[C@H]3C(=O)OC[C@@H]32)OCO4)cc(OC)c1	144%
